# Measurements reported in PubChem BioAssay (NCI).
#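 1) Cells in 96-well plates. 2) Compound, 48 h, 5 concentrations. 3) Linear interpolation between surrounding doses. 4) Unreached endpoint = highest concentration. GI50 = concentration required for 50% inhibition of growth. The concentration for full growth arrest is given as TGI.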
# Columns and labels:
# Test in all cases: NCI tumour cell line growth inhibition, 48 h
# IGROV1 ovarian = system: IGROV1 ovarian
# NCI-H522 lung = system: NCI-H522 lung
# OVCAR-3 ovarian = system: OVCAR-3 ovarian
# SF-295 CNS = system: SF-295 CNS
# SF-539 CNS = system: SF-539 CNS
# SNB-19 CNS = system: SNB-19 CNS
# OVCAR-5 ovarian = system: OVCAR-5 ovarian
# SR leukemia = system: SR leukemia
# MDA-MB-435 = system: MDA-MB-435
# T-47D breast = system: T-47D breast
SMILES,TGI (IGROV1 ovarian),TGI (NCI-H522 lung),TGI (OVCAR-3 ovarian),TGI (SF-295 CNS),TGI (SF-539 CNS),TGI (SNB-19 CNS),TGI (OVCAR-5 ovarian),TGI (SR leukemia),GI50 (IGROV1 ovarian),GI50 (MDA-MB-435),TGI (MDA-MB-435),GI50 (NCI-H522 lung),GI50 (OVCAR-3 ovarian),GI50 (OVCAR-5 ovarian),GI50 (SF-295 CNS),GI50 (SF-539 CNS),GI50 (SNB-19 CNS),GI50 (T-47D breast),TGI (T-47D breast),GI50 (SR leukemia)
[O-]c1c(-c2ccccc2)[se]c(-c2ccccc2)[n+]1-c1ccccc1,13.6 µM,8.42 µM,21.9 µM,12.1 µM,4.35 µM,20.2 µM,,,,,,,,,,,,,,
O=C(O/N=C1/CCC/C1=C\c1ccccc1)c1ccc(Cl)cc1,> 65 µM,> 100 µM,> 71.9 µM,> 100 µM,> 62.2 µM,> 100 µM,> 100 µM,> 100 µM,,,,,,,,,,,,
O=C1c2ccccc2C(=O)c2c1c(NCCNCCO)c1cc[nH]c1c2NCCNCCO,> 100 µM,> 35.8 µM,> 26.1 µM,43 µM,14.5 µM,12.9 µM,> 31.3 µM,,9.23 µM,3.03 µM,11.9 µM,2.32 µM,3.57 µM,3.96 µM,4.37 µM,1.25 µM,1.26 µM,11.8 µM,> 46.5 µM,
Nc1nc(N)c2ncn(Cc3c(Cl)cccc3Cl)c2n1,> 100 µM,> 100 µM,> 100 µM,> 100 µM,> 100 µM,> 100 µM,> 100 µM,,,,> 100 µM,,,,,,,,> 100 µM,
COc1cc2c(C#N)n3c(c2cc1OC)C(=O)C(c1ccccc1)Oc1ccccc1-3 (configuration not stated),> 100 µM,,> 100 µM,> 100 µM,> 100 µM,> 100 µM,,> 100 µM,7.41 µM,,,,4.48 µM,,4.1 µM,19.8 µM,3.53 µM,,,2.58 µM
CP(=O)(CCSc1ccccc1)c1ccccc1 (configuration not stated),> 100 µM,,> 100 µM,> 100 µM,> 100 µM,> 100 µM,,> 100 µM,,,,,,,,,,,,
CCC(=O)[O-].CCC(=O)[O-].N.N.N.N.[Co+3].[O-][Cl+3]([O-])([O-])[O-],> 100 µM,> 100 µM,> 100 µM,> 100 µM,> 100 µM,> 100 µM,> 100 µM,,> 100 µM,,,> 100 µM,> 100 µM,> 100 µM,> 100 µM,> 100 µM,> 100 µM,,,
COc1ccc(-c2ccc(=O)oc2-c2cc(OC)c(OC)c(OC)c2)cc1O,,0.0944 µM,0.16 µM,> 100 µM,0.104 µM,> 100 µM,> 100 µM,,< 0.01 µM,,,0.0124 µM,< 0.01 µM,,0.0157 µM,< 0.0149 µM,0.0571 µM,> 100 µM,> 100 µM,
CC(=O)[CH-]C(=O)c1ccccc1.CC(=O)[CH-]C(=O)c1ccccc1.[O-]c1ccc(O)cc1.[O-]c1ccc(O)cc1.[Ti+4],63 µM,4.37 µM,27.2 µM,34.3 µM,24.1 µM,40 µM,91.4 µM,,23.7 µM,,,1.97 µM,13.9 µM,35.1 µM,16.5 µM,11.7 µM,18.9 µM,,,
N#CC(C(=N/NC(N)=S)/C(=N\NC(N)=S)C(C#N)c1ccccc1)c1ccccc1 (configuration not stated),,> 10 µM,> 10 µM,> 10 µM,> 10 µM,> 10 µM,> 10 µM,,,,,,,,,,,,,
